Read-outs that look alike come from different tables or passages of the source.
How the values were obtained:
[1] = tested on: labile Fe^2+ in mitochondria of Jurkat cells; assay: Mito-FerroGreen fluorescence microscopy in Jurkat cells; type: cell-based; conditions: 4 2.5 μM 1 h; celastrol 5 μM, etoposide 5 μM, cisplatin 100 μM 24 h
Experimental: (§1) Jurkat cells (2.0 × 10^5 cells) were treated with 4 (2.5 μM), etoposide (5 μM), cisplatin (100 μM) and celastrol (5 μM) and stained with Mito-FerroGreen (a probe for labile Fe^2+ in mitochondria) (5 μM) and zinquin (a probe for intracellular Zn^2+) (25 μM). The cell images were observed via fluorescence microscopy.

IMR90 cells [2] = assay: cells
Experimental: (§2) HeLa S3 cells (human cervical carcinoma) were cultured in Minimum essential medium (MEM) containing 10% FBS, penicillin, and streptomycin. A549 cells (human lung carcinoma) and IMR90 cells (human fetal lung fibroblast) were cultured in Dulbecco’s modified Eagle’s medium (DMEM) with 10% FBS, penicillin, and streptomycin. All cells were cultured at 37 °C under a humidified atmosphere containing 5% CO2.
(§3) Jurkat, HeLa-S3, A549 cells (2.0 × 10^5 cells/mL) and IMR90 cells (1.0 × 10^5 cells/mL) were incubated in the presence of 3–7 for 1 h, and etoposide, cisplatin and celastrol for 24 h (50 μL) in cell culture medium under CO2 at 37 °C in 96-well plates (BD Falcon). MTT reagent (5 mg/mL) in PBS (10 μL) was then added to the cells. After incubation at 37 °C for 4 h, a formazan lysis solution (10% sodium dodecyl sulfate (SDS) in 0.01 N HCl) (100 μL) was added and the resultant solution was incubated overnight under the same conditions, which was followed by measurement of the absorbance at 570 nm using a microplate reader (ARVO, PerkinElmer).

Jurkat cells [3] = assay: cells; conditions: 1 h
Experimental: as §2, §3

A549 cells [4] = assay: cells; conditions: 1 h
Experimental: as §2, §3

HeLa-S3 cells [5] = assay: cells; conditions: 1 h
Experimental: as §2, §3

Jurkat cells [6] = type: cell-based; conditions: 1 h
Experimental: MTT reagent (5 mg/mL) in PBS (10 μL) was then added to the cells. After incubation at 37 °C for 4 h, a formazan lysis solution (10% sodium dodecyl sulfate (SDS) in 0.01 N HCl) (100 μL) was added and the resultant solution was incubated overnight under the same conditions, which was followed by measurement of the absorbance at 570 nm using a microplate reader (ARVO, PerkinElmer).

A549 cells [7] = assay: Costaining of ER and mitochondria (ERTracker Red, MitoTracker Green), confocal microscopy, A549 cells; type: cell-based, human; conditions: 4 10 μM, 15 min; celastrol 100 μM
Experimental: (§4) Jurkat, HeLa-S3, A549, and IMR90 cells (2.0 × 10^5 cells) were incubated with 4 (final concentration = 2.5 μM (for Jurkat), 5 μM (for HeLa-S3), 10 μM (for A549) and 5 μM and 50 μM (for IMR90)) in cell culture medium at 37 °C under 5% CO2. After incubation, MitoTracker Green (final concentration = 100 nM (for Jurkat) or 500 nM (for HeLa-S3, A549 and IMR90)), or ERTracker Red (final concentration = 500 nM (for Jurkat) or 1 μM (for HeLa-S3, A549 and IMR90)) were applied for 1 h under the same conditions. After washing with PBS, the cells were observed via confocal fluorescence microscopy (FluoView, FV-1000, Olympus). Excitation at 473 nm and emissions from 485 to 585 nm were used for detecting the MitoTracker Green. Excitation at 559 nm and emissions from 570 to 670 nm were used for detecting the ERTracker Red. Exposure time was 20 μs/pixel.

[8] = tested on: Ca^2+ concentrations in mitochondria and cytosol in Jurkat cells; assay: Rhod-2/AM and Rhod-4/AM emission (mitochondrial and cytosolic Ca2+) in Jurkat cells; type: cell-based; conditions: 4 2.5 μM, 0–60 min
Experimental: (§5) Jurkat, HeLa-S3, and A549 cells (2.0 × 10^5 cells) were preincubated with Rhod-2/AM (final concentration = 5 μM) or Rhod-4/AM (final concentration = 5 μM) in medium under 5% CO2 at 37 °C for 30 min and then treated with 4 (final concentration = 2.5, 5, or 10 μM) for 0, 15, 30, 45, and 60 min. HeLa-S3 and A549 cells were detached by accutase, immediately after which the cells were suspended in 300 μL of cell culture medium and then analyzed on a flow cytometer (FACS Calibur cytometer, Becton), and the data were analyzed using the FlowJo software (FlowJo, LCC).
Jurkat, HeLa-S3, A549, and IMR90 cells (2.0 × 10^5 cells) were stained with Rhod-2/AM or Rhod-4/AM (final concentration = 5 μM) for 30 min at 37 °C under 5% CO2. […] After washing with PBS, the cells were observed via fluorescence microscopy (BZ-X800, Keyence) using a Greiner CELLview Petri dish (35 × 10 mm^2). […]
(§6) Jurkat, HeLa-S3, A549, and IMR90 cells (8.0 × 10^4 cells) were incubated with CCCP or 2-APB for 1 h and then stained with Rhod-2/AM or Rhod-4/AM (final concentration = 5 μM) for 30 min at 37 °C under 5% CO2. The cells were washed with PBS and were treated with 4 (final concentration = 2.5, 5, or 10 μM) in PBS for 0–60 min at 37 °C in a microplate reader (ARVO, PerkinElmer). Excitation at 540 nm and emission at 590 nm were used for the measurement of Rhod-2/AM and Rhod-4/AM on the microplate reader.

[9] = tested on: Ca^2+ concentrations in mitochondria in IMR90 cells; assay: Rhod-2/AM emission (mitochondrial Ca2+) in IMR90 cells; type: cell-based, human; conditions: 4 5 μM, 0–60 min
Experimental: (§7) Jurkat, HeLa-S3, A549, and IMR90 cells (2.0 × 10^5 cells) were stained with Rhod-2/AM or Rhod-4/AM (final concentration = 5 μM) for 30 min at 37 °C under 5% CO2. The cells were washed with PBS and were treated with 4 (final concentration = 2.5, 5, or 10 μM) in cell culture medium for 30 and 60 min at 37 °C under 5% CO2. To test the effect of celastrol and cisplatin in HeLa-S3 and A549 cells, the cells were incubated with celastrol (final concentration = 100 μM) and cisplatin (final concentration = 100 μM) for 2–6 h. After washing with PBS, the cells were observed via fluorescence microscopy (BZ-X800, Keyence) using a Greiner CELLview Petri dish (35 × 10 mm^2). Emission images were observed using a TRITC filter (excitation 540 nm, emission 605 nm).
as §6

[10] = tested on: Ca^2+ concentrations in mitochondria and cytosol in A549 cells; assay: Rhod-2/AM and Rhod-4/AM emission (mitochondrial and cytosolic Ca2+) in A549 cells; type: cell-based, human; conditions: 4 10 μM 1 h; celastrol 100 μM 2–6 h
Experimental: as §5, §7, §6

HeLa-S3 cells [11] = assay: Costaining of ER and mitochondria (ERTracker Red, MitoTracker Green), confocal microscopy, HeLa-S3 cells; type: cell-based, human; conditions: 4 5 μM, 5 and 10 min; celastrol 100 μM
Experimental: as §4

IMR90 cells [12] = assay: Costaining of ER and mitochondria (ERTracker Red, MitoTracker Green), confocal microscopy, IMR90 cells; type: cell-based, human; conditions: 4 5 or 50 μM, 15 or 60 min
Experimental: as §4

[13] = tested on: Ca^2+ concentrations in mitochondria and cytosol in HeLa-S3 cells; assay: Rhod-2/AM and Rhod-4/AM emission (mitochondrial and cytosolic Ca2+) in HeLa-S3 cells; type: cell-based, human; conditions: 4 5 μM 1 h
Experimental: as §5, §7, §6

[14] = tested on: intracellular Zn^2+ in Jurkat cells; assay: Zinquin fluorescence microscopy in Jurkat cells; type: cell-based; conditions: 4 2.5 μM 1 h; celastrol 5 μM, etoposide 5 μM, cisplatin 100 μM 24 h
Experimental: as §1

Jurkat cells [15] = assay: Costaining of ER and mitochondria (ERTracker Red, MitoTracker Green), confocal microscopy, Jurkat cells; type: cell-based; conditions: 4 2.5 μM, 15 min
Experimental: as §4

NCCCC[C@H](NC(=O)[C@H](CCCCN)NC(=O)[C@@H](N)CCCCN)C(=O)N[C@@H](CC1CCCCC1)C(=O)NCC(=O)NCCCCCCCCNC(=O)COc1cccc2c1C1c3c(OCC(=O)NCCCCCCCCNC(=O)CNC(=O)[C@H](CC4CCCCC4)NC(=O)[C@H](CCCCN)NC(=O)[C@H](CCCCN)NC(=O)[C@@H](N)CCCCN)cccc3C2c2cccc(OCC(=O)NCCCCCCCCNC(=O)CNC(=O)[C@H](CC3CCCCC3)NC(=O)[C@H](CCCCN)NC(=O)[C@H](CCCCN)NC(=O)[C@@H](N)CCCCN)c21 [compound 4]
Emission from Mito-FerroGreen (free Fe2+ in mitochondria) in Jurkat cells [1]: negligibly enhanced
EC50 (IMR90 cells [2]; 1 h): > 12500 nM
EC50 (IMR90 cells [2]; 5 h): 4400 nM
EC50 (Jurkat cells [3]): 700 ± 100 nM
EC50 (A549 cells [4]): 2400 ± 100 nM
EC50 (HeLa-S3 cells [5]): 1600 ± 100 nM
EC50 (Jurkat cells [6]): 1800 nM
Overlap of emission from MitoTracker Green and ERTracker Red in A549 cells (A549 cells [7]): considerable overlap
Emission of Rhod-4/AM (cytosolic Ca2+) in Jurkat cells [8]: moderate∼weak enhancement
Emission of Rhod-2/AM (mitochondrial Ca2+) in IMR90 cells [9]: somewhat slower emission enhancement
Emission of Rhod-2/AM (mitochondrial Ca2+) in A549 cells [10]: enhancement of the red emission
Emission of Rhod-4/AM (cytosolic Ca2+) in A549 cells [10]: negligible enhancement
Overlap of emission from MitoTracker Green and ERTracker Red in HeLa-S3 cells (HeLa-S3 cells [11]): considerable overlap
Overlap of emission from MitoTracker Green and ERTracker Red in IMR90 cells (IMR90 cells [12]): weak overlap
Emission of Rhod-4/AM (cytosolic Ca2+) in HeLa-S3 cells ([13]; celastrol 100 μM 2–6 h): negligible enhancement
Emission of Rhod-2/AM (mitochondrial Ca2+) in HeLa-S3 cells ([13]; celastrol or cisplatin 100 μM 2–6 h): enhancement of the red emission
Emission from zinquin (intracellular free Zn2+) in Jurkat cells [14]: negligibly enhanced
Overlap of emission from MitoTracker Green and ERTracker Red in Jurkat cells (Jurkat cells [15]): considerable overlap
